“And” between values parts separate entries of the source, which are not always exact repeats. Identical values can stand only once. Like-named read-outs stand apart in the source and are kept apart here.
Key:
Format in all cases: cell-based
OR2M3 C112S = biological target: T1, OR2M3 C112S (Homo sapiens, UniProt Q8NG83, C112S); assay: GloSensor assay, OR2M3 C112S; settings: presence of copper 10 µmol/L, agonist 20 µmol/L
T1 construct: 39aa rho-tag; expressed in transfected cells; host or cells: NxG 108CC15 or HEK-293 cells
T1 sequence (Q8NG83 whole entry C112S): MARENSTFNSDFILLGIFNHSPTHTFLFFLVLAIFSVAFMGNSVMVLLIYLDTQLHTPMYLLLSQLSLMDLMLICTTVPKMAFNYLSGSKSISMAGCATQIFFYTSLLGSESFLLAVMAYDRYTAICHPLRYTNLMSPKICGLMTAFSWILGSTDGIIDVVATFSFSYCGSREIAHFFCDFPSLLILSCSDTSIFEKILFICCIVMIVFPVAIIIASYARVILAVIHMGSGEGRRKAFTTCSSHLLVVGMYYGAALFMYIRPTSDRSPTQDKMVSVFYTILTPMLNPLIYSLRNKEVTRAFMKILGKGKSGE
Procedure: (§1) All receptor variants used were generated by PCR-based site-directed mutagenesis in two steps. Gene-specific primers (mutation primers) were used according to Table S2 and Table S3. The mutation primers, which carried the changed nucleotides, were designed overlapping.
(§2) The assay was performed as reported above.
(§3) All data are presented as mean ± SD.

OR2M3 I207L = biological target: T2, OR2M3 I207L (Homo sapiens, UniProt Q8NG83, I207L); assay: GloSensor assay, OR2M3 I207L; settings: OR2M3 I207L (SNP haplotype)
T2 construct: full-length gene-specific forward and reverse primers were added; 39aa rho-tag; expressed in transfected cells; host or cells: NxG 108CC15 or HEK-293 cells
T2 sequence (Q8NG83 whole entry I207L): as the sequence (Q8NG83 whole entry C112S) above, with S112C, I207L counted along it
Description: as §1, §3
(§4) (a) Schematic snake diagram with localization of mutated amino acid positions within OR2M3, which have been chosen because of their close vicinity to putative interaction sites with odorants as proposed by Man et al. (red circles). Effects of 3-mercapto-2-methylpentan-1-ol on OR2M3 variants (black curves) with SNP-defined single amino acid changes at positions 104^3.32 (b), 206^5.45 (c), and 207^5.46 (d). Note that the same data set for 3-mercapto-2-methylpentan-1-ol on OR2M3 wt (grey, see also Fig. 1b, d) is given in panels (b)-(d) for didactic reasons. […] RLU = relative luminescence unit. 3MMP = 3-mercapto-2-methylpentan-1-ol.

OR2M3 C241A = biological target: T3, OR2M3 C241A (Homo sapiens, UniProt Q8NG83, C241A); assay: GloSensor assay, OR2M3 C241A; settings: OR2M3 Cys241 to alanine; in the absence or presence of Cu^2+
T3 construct: 39aa rho-tag; expressed in transfected cells; host or cells: NxG 108CC15 or HEK-293 cells
T3 sequence (Q8NG83 whole entry C241A): as the sequence (Q8NG83 whole entry C112S) above, with S112C, C241A counted along it
Procedure: as §1, §2, §3

OR2M3 C203S = biological target: T4, OR2M3 C203S (Homo sapiens, UniProt Q8NG83, C203S); assay: GloSensor assay, OR2M3 C203S; settings: 10 µmol/L Cu^2+, read-out: EC50 in the presence of Cu^2+
T4 construct: 39aa rho-tag; expressed in transfected cells; host or cells: NxG 108CC15 or HEK-293 cells
T4 sequence (Q8NG83 whole entry C203S): as the sequence (Q8NG83 whole entry C112S) above, with S112C, C203S counted along it
Procedure: as §1, §2, §3

OR2M3 C202A = biological target: T5, OR2M3 C202A (Homo sapiens, UniProt Q8NG83, C202A); assay: GloSensor assay, OR2M3 C202A; settings: even in the presence of Cu^2+, agonist 20 µmol/L
T5 construct: 39aa rho-tag; expressed in transfected cells; host or cells: NxG 108CC15 or HEK-293 cells
T5 sequence (Q8NG83 whole entry C202A): as the sequence (Q8NG83 whole entry C112S) above, with S112C, C202A counted along it
Procedure: as §1, §2, §3

OR2M3 C203Y = biological target: T6, OR2M3 C203Y (Homo sapiens, UniProt Q8NG83, C203Y); assay: GloSensor assay, OR2M3 C203Y; settings: in the absence or presence of Cu^2+
T6 construct: full-length gene-specific forward and reverse primers were added; 39aa rho-tag; expressed in transfected cells; host or cells: NxG 108CC15 or HEK-293 cells
T6 sequence (Q8NG83 whole entry C203Y): as the sequence (Q8NG83 whole entry C112S) above, with S112C, C203Y counted along it
Procedure: as §1, §2, §3

OR2M3 C203A = biological target: T7, OR2M3 C203A (Homo sapiens, UniProt Q8NG83, C203A); assay: GloSensor assay, OR2M3 C203A; settings: even in the presence of Cu^2+, agonist 20 µmol/L
T7 construct: 39aa rho-tag; expressed in transfected cells; host or cells: NxG 108CC15 or HEK-293 cells
T7 sequence (Q8NG83 whole entry C203A): as the sequence (Q8NG83 whole entry C112S) above, with S112C, C203A counted along it
Procedure: as §1, §2, §3

OR2M3 Y104C = biological target: T8, OR2M3 Y104C (Homo sapiens, UniProt Q8NG83, Y104C); assay: GloSensor assay, OR2M3 Y104C; settings: OR2M3 Y104C (SNP haplotype)
T8 construct: full-length gene-specific forward and reverse primers were added; 39aa rho-tag; expressed in transfected cells; host or cells: NxG 108CC15 or HEK-293 cells
T8 sequence (Q8NG83 whole entry Y104C): as the sequence (Q8NG83 whole entry C112S) above, with Y104C, S112C counted along it
Description: as §1, §3, §4

OR2M3 H244A = biological target: T9, OR2M3 H244A (Homo sapiens, UniProt Q8NG83, H244A); assay: GloSensor assay, OR2M3 H244A; settings: OR2M3 His244 to alanine; in the absence or presence of Cu^2+
T9 construct: 39aa rho-tag; expressed in transfected cells; host or cells: NxG 108CC15 or HEK-293 cells
T9 sequence (Q8NG83 whole entry H244A): as the sequence (Q8NG83 whole entry C112S) above, with S112C, H244A counted along it
Procedure: as §1, §2, §3

OR2M3 C202S = biological target: T10, OR2M3 C202S (Homo sapiens, UniProt Q8NG83, C202S); assay: GloSensor assay, OR2M3 C202S; settings: even in the presence of Cu^2+, agonist 20 µmol/L
T10 construct: full-length gene-specific forward and reverse primers were added; 39aa rho-tag; expressed in transfected cells; host or cells: NxG 108CC15 or HEK-293 cells
T10 sequence (Q8NG83 whole entry C202S): as the sequence (Q8NG83 whole entry C112S) above, with S112C, C202S counted along it
Procedure: as §1, §2, §3

OR2M3 wt = biological target: T11, OR2M3 wt (Homo sapiens, UniProt Q8NG83); assay: cAMP-luminescence GloSensor assay, recombinant OR2M3 wt; settings: OR2M3 wt
T11 construct: full-length gene-specific forward and reverse primers were added; 39aa rho-tag; expressed in transfected cells; host or cells: NxG 108CC15 or HEK-293 cells
T11 sequence (Q8NG83 1-312): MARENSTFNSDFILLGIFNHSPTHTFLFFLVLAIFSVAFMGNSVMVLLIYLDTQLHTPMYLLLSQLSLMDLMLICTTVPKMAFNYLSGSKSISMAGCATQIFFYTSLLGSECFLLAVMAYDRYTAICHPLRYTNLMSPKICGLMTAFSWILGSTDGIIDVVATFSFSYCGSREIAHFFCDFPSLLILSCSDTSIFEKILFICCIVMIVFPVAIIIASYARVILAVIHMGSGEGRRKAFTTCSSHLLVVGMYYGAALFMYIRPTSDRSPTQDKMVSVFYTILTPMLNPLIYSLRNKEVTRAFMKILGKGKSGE
Procedure: as §2, §3

OR2M3 M206I = biological target: T12, OR2M3 M206I (Homo sapiens, UniProt Q8NG83, M206I); assay: GloSensor assay, OR2M3 M206I; settings: OR2M3 M206I (SNP haplotype)
T12 construct: 39aa rho-tag; expressed in transfected cells; host or cells: NxG 108CC15 or HEK-293 cells
T12 sequence (Q8NG83 whole entry M206I): as the sequence (Q8NG83 whole entry C112S) above, with S112C, M206I counted along it
Description: as §1, §3, §4

OR2M3 T105A = biological target: T13, OR2M3 T105A (Homo sapiens, UniProt Q8NG83, T105A); assay: GloSensor assay, OR2M3 T105A
T13 construct: 39aa rho-tag; expressed in transfected cells; host or cells: NxG 108CC15 or HEK-293 cells
T13 sequence (Q8NG83 whole entry T105A): as the sequence (Q8NG83 whole entry C112S) above, with T105A, S112C counted along it
Procedure: as §1, §2, §3

OR2M3 C112A = biological target: T14, OR2M3 C112A (Homo sapiens, UniProt Q8NG83, C112A); assay: GloSensor assay, OR2M3 C112A
T14 construct: 39aa rho-tag; expressed in transfected cells; host or cells: NxG 108CC15 or HEK-293 cells
T14 sequence (Q8NG83 whole entry C112A): as the sequence (Q8NG83 whole entry C112S) above, with S112A counted along it
Procedure: as §1, §2, §3

[1] = 10 µmol/L Cu^2+, read-out: EC50 in the presence of Cu^2+
[2] = presence of copper 10 µmol/L, agonist 20 µmol/L

CCC(S)C(C)CO (stereo not shown) [3-Mercapto-2-methylpentan-1-ol, 3-mercapto-2-methylpentan-1-ol]
agonist function in mutant receptor (OR2M3 C112S): rescued
EC50 (OR2M3 I207L): 1410 ± 40 nM
agonist function in mutant receptor (OR2M3 C241A): not functional anymore
EC50 (OR2M3 C203S): 3160 ± 10 nM
agonist function in mutant receptor (OR2M3 C202A): complete loss-of-function
agonist function in mutant receptor (OR2M3 C203Y): complete loss-of-function
agonist function in mutant receptor (OR2M3 C203A): complete loss-of-function
EC50 (OR2M3 Y104C): 1020 ± 180 nM
agonist function in mutant receptor (OR2M3 H244A): not functional anymore
agonist function in mutant receptor (OR2M3 C202S): complete loss-of-function
EC50 (OR2M3 wt; 10 µmol/L Cu^2+, mean ± SD (n = 3–5), read-out: EC50 in the presence of Cu^2+): 290 ± 100 nM
Relative amplitude (OR2M3 wt; 30 µmol/L AgAc, normalized to wt signal without Cu^2+): 5.72 ± 0.42
EC50 (OR2M3 wt; 30 µmol/L AgAc, read-out: EC50): 870 ± 500 nM
Relative amplitude (OR2M3 wt; 30 µmol/L AgNO3, normalized to wt signal without Cu^2+): 6.41 ± 1.17
EC50 (OR2M3 wt; 30 µmol/L AgNO3, read-out: EC50): 1490 ± 360 nM
EC50 (OR2M3 wt; 30 µmol/L CoCl2, read-out: EC50): 730 ± 260 nM
EC50 (OR2M3 wt; 30 µmol/L CuCl2 + copper chelator TEPA, read-out: EC50): 1130 ± 360 nM
EC50 (OR2M3 wt; 30 µmol/L FeCl3, read-out: EC50): 1670 ± 340 nM
EC50 (OR2M3 wt; 30 µmol/L NiCl2, read-out: EC50): 1090 ± 630 nM
Relative amplitude (OR2M3 wt; 30 µmol/L ZnSO4, n.d. = no detectable response up to 60 µmol/L): complete loss-of-function
Relative amplitude (OR2M3 wt; 30 µmol/L colloidal Ag, normalized to wt signal without Cu^2+): 3.52 ± 0.69
EC50 (OR2M3 wt; 30 µmol/L colloidal Ag, read-out: EC50): 760 ± 350 nM
Hill coefficient (OR2M3 wt; absence of copper (n = 4)): 0.89 ± 0.41
Relative amplitude (OR2M3 wt; copper concentration 60 µmol, normalized to wt signal without Cu^2+): 1.42 ± 0.64
EC50 (OR2M3 wt; copper concentration 60 µmol, read-out: EC50): 1470 ± 120 nM
Relative amplitude (OR2M3 wt; copper concentration 100 µmol, normalized to wt signal without Cu^2+): 0.73 ± 0.48
EC50 (OR2M3 wt; copper concentration 100 µmol, read-out: EC50): 1950 ± 300 nM
EC50 (OR2M3 wt; no metal supplementation (w/o), mean ± SD (n = 3–5), read-out: EC50 in the absence of Cu^2+): 450 ± 190 nM
EC50 (OR2M3 wt; presence of 30 µmol/L CuCl2, read-out: EC50): 550 ± 10 nM
Hill coefficient (OR2M3 wt; presence of copper (10 µmol/L) (n = 4)): 1.9 and 1.93 ± 0.71 and ~2
increase in amplitude (OR2M3 wt; supplementation with ionic or colloidal silver, 30 µmol/L): three-to-sixfold increase in amplitude
Relative amplitude (OR2M3 wt; w/o metal, normalized to OR2M3 wt signal with 3-mercapto-2-methylpentan-1-ol (20 µmol/L) in the absence of Cu^2+ (reference)): 1
receptor function (response to agonist) (OR2M3 M206I): complete loss-of-function
EC50 (OR2M3 T105A; [1]): 750 ± 270 nM
agonist function in mutant receptor (OR2M3 T105A; [2]): rescued
EC50 (OR2M3 C112A; [1]): 860 ± 4 nM
agonist function in mutant receptor (OR2M3 C112A; [2]): rescued

Reference: PMC7256108 (Cellular and Molecular Life Sciences: CMLS, 2019)
